Earlier results on one compound are cited in patent publication US20260273014A1, “Herbal composition for metabolic syndromes and method of treatment thereof” (priority 2019, published 2026).

For this series the following is noted: pure mangiferin (Acosta et al. 2016).

As to `O=c1c2cc(O)c(O)cc2oc2cc(O)c([C@@H]3O[C@H](CO)[C@@H](O)[C@H](O)[C@H]3O)c(O)c12` [mangiferin], the solubility result was “an issue in most biological models”.
